Measurements from patent publication US8481005B2, “Methods to prevent cytotoxicity using N-acetyl-cysteine” (priority 2006, dated 2013).

Key:
[1] = tested on: NFkB knock down oral keratinocytes; assay: Cell death in NFkB knock down oral keratinocytes (FS/PI); type: cell-based, human; settings: overnight
Description: Next, retrovirally-transduced oral keratinocytes were left untreated or treated with HEMA. […] Numbers in each quadrant represent the percentages of cells in that quadrant.
Similar treatments were next performed as described above except that the morphological assessment of oral keratinocytes before and after HEMA treatment was examined.

[2] = tested on: dental pulp stromal cells; assay: Cell death in rat dental pulp stromal cells in vitro; type: cell-based, Sprague-Dawley rats; settings: 0.0328M and 0.00328M HEMA with NAC 20 mM, about 12-14 hours, versus HEMA alone
Description: In a first study using dental pulp stromal cells, dental pulp tissue was extracted from the lower central incisors of 8-12 week old male Sprague-Dawley rats. The lower central incisors were carefully extracted without fracture to avoid periodontal tissue influx into the pulp tissue. The periodontal tissue and other soft tissue remnants were removed from the root part of the teeth, and the incisor tip and root parts were then cut to allow the pulp tissue to be washed out. The extracted tissue was then treated with 0.1% collagenase in 0.25% trypsin EDTA at 37° C. for about 15 minutes. The pellet of released cells was then centrifuged at about 2000 rpm for about 4 minutes and resuspended in DMEM supplemented with 10% FBS, 1% sodium pyruvate, 1% non-essential amino acids and 1% antibiotic-antimycotic. The cells were cultured in a 6 well plate and the media was changed every 3 days.

dental pulp cells = assay: Rat incisor restoration with Herculite XR/ProBOND with or without NAC: pulp cell growth and ALP staining; type: in vivo, rats; settings: restorative materials about 5 hours
Experimental: In a next experiment, the incisors of nine eight-week-old male rats were prepared with class V preparations near the level of the gingival using a #1 round bur in a high speed dental handpiece.
Again, in this experiment upper and lower incisors were used. Restorative materials were placed on the teeth for about 5 hours. The pulp was extracted and treated with trypsin/EDTA (0.25%) and collagenase (0.02%), washed and resuspended in DMEM containing β-glycerophosphate (10 mM) and ascorbic acid (50 μg/ml) and allowed to grow to confluency. After 14 days of cell growth (media changed every 2-3 days) photographs were taken using an inverted microscope; cells were detached and counted in each experimental group; and wells containing different experimental groups were stained for alkaline phosphatase (ALP).
In vivo studies were performed after tooth restorations to assess the protective effect of NAC on both the viability and function of rat pulp tissue. Eight week old male rats were used for restorations of the incisors. In this study the number of functional cells in cells extracted from the lining of the rat teeth where (A) no restorative materials were administered; (B) restorative materials only were applied; and (C) restorative material in conjunction with NAC were compared. Specifically, nine rats were used and were divided into 3 groups (A, B or C) of 3 rats each. […]

[3] = tested on: differentiated pulp cells (odontoblasts); assay: Composite discs on differentiated pulp cells, FITC-Annexin V/PI; type: cell-based; settings: completely cured composite discs in 0.4 μm inserts; one week
Experimental: Next, the effects of routinely used composites on the odontoblasts were tested. The composite discs were made according to ADA specifications. These discs were completely cured for a total time of about 90 seconds. The discs were then placed into culture dish inserts (Millipore, Calif.). […] The insert along with the composite disc were placed into the well containing the differentiated pulp cells. After one week of incubation at about 37° C. the cells were removed and the numbers of apoptotic cells were analyzed using FITC-Annexin V/PI as described previously.

[4] = tested on: human dental pulp stromal cells; assay: Apoptosis in human dental pulp stromal cells, 18 hours; type: cell-based; settings: HEMA and NAC 20 mM
Experimental: Pulp was then removed, minced and treated with trypsin/EDTA and collagenase to release the dental pulp stromal cells. […] Next the cells were analyzed for apoptosis using FTIC-Annexin V and PI.

odontoblasts = assay: Cell viability of rat odontoblasts; type: cell-based; settings: 0.0164M-0.00164M HEMA with NAC 20 mM, about 12-14 hours, versus HEMA alone
Experimental: Differentiation was induced by the addition of about 10 mM of β-glycerophosphate and about 50 μg/ml of ascorbic acid.

gingival cells = assay: PI/FITC-Annexin V cell survival of rat gingival cells; type: cell-based; settings: 0.0164M-0.00164M HEMA with NAC 20 mM, about 12-14 hours, versus HEMA alone
Experimental: Rat gingival cells were obtained from 8 week old male rats and cultured in DMEM supplemented with 10% FBS, 1% antibiotic-antimycotic, 1% sodium pyruvate and 1% non-essential amino acids. […] Cell survival was measured by PI/FITC-Annexin V staining as described previously.

IL-2 treated PBMCs = assay: Tritiated thymidine proliferation of IL-2 treated PBMCs; type: cell-based; settings: HEMA and NAC, 24 hours with tritiated thymidine
Experimental: Tritiated thymidine was added to the cells and after 24 hours of incubation assessed for proliferation.

[5] = tested on: teeth and surrounding tissue; assay: Rat tooth bleaching with or without NAC: photographs of teeth and tissue; type: in vivo
Experimental: Rats were divided into the following groups: A: control, unbleached; B: bleached with no NAC; and C: Bleached with NAC. The bleaching agent used in the following studies was Oral B Rembrandt whitening system (containing 33% hydrogen peroxide and carbamide) often used in dental offices (chair side). NAC was initially painted on teeth at a 20 mM concentration for 5 minutes. Next a bleaching agent was applied for 5 hours, after which the teeth were extracted, and pulp was obtained from each group and treated with trypsin/EDTA (0.25%) and collagenase (0.02%). […] Also note that bleaching in the presence of NAC (F) was as effective as bleaching without the NAC (E). […] Note the white tissue in the absence of NAC which represents dead and dying tissue.

[6] = tested on: dental pulp stromal cells; assay: Rat tooth bleaching: dental pulp stromal cell growth, count and ALP; type: in vivo, rats; settings: bleaching agent 5 hours, without or with NAC 20 mM painted 5 minutes; 12-21 days
Experimental: Similar studies were also carried out using dental pulp stromal cells. Rats were divided into three groups: (1) Control (no bleach); (2) Bleach; and (3) Bleach and NAC. In these studies, NAC was initially painted on to the teeth (20 mM concentration) for 5 minutes and then bleaching agent applied for 5 hours, after which the teeth were extracted, and pulp was obtained from each group. Pulp was treated with trypsin/EDTA (0.25%) and collagenase (0.02%) to obtain single cell suspension of the cells, washed and resuspended in DMEM containing β-glycerophosphate (10 mM) and ascorbic acid (50 μg/ml), and allowed to grow to confluency, before either photographs were taken (12-21 days; FIG. 47); cells were counted (21 days; FIG. 48); or ALP staining was performed (21 days; FIG. 49). […] Whitening Strips

Structure (SMILES) | cell death (FS, PI staining) [1] | viable cells after HEMA exposure [2] | pulp cell number after restoration (dental pulp cells; 14 days of cell growth) | ALP staining of pulp cells after restoration (dental pulp cells; composite resin with or without NAC) | apoptotic cells (FITC-Annexin V/PI) [3] | inhibition of HEMA-mediated cell death [4] | percentage of viable cells (odontoblasts) | viable cells after HEMA exposure (gingival cells) | proliferation (IL-2 treated PBMCs) | efficacy or potency of the bleaching system ([5]; NAC 20 mM painted on teeth 5 minutes, then bleaching agent 5 hours) | white (dead and dying) tissue after bleaching ([5]; bleaching agent 5 hours, without or with NAC 20 mM) | cytotoxicity and cell death of dental pulp stromal cells [6]
C=C(C)C(=O)OCCO [HEMA, hydroxyethyl methacrylate] | induces significant cell death | – | – | – | – | – | – | – | – | – | – | –
CC(=O)N[C@@H](CS)C(=O)O [NAC, N-acetyl-cysteine] | – | higher number of viable cells | can help to prevent the cell loss | can be ameliorated | inhibits cell death induced by light cured composite disks | significant inhibition of HEMA-mediated cell death at all HEMA concentrations | percentage of viable cells increases | higher number of viable cells | can prevent HEMA-induced loss of proliferation | does not decrease the efficacy or potency of the bleaching system | the amount of white tissue is minimal | could be reversed
